Test results: ChEMBL document CHEMBL3393057, “Synthesis and transmembrane anion/cation symport activity of a rigid bis(choloyl) conjugate functionalized with guanidino groups” (Bioorg Med Chem Lett, 2015); call rule not given here

Legend:
[1] = Ionophoric activity across egg yolk L-alpha-phosphatidylcholine-based liposomal membrane vesicles (unknown origin) assessed as induction of pH discharge at internal pH 7 and external aqueous phase pH 8 at 3 mol% by pyranine dye-based method in presence of NaCl; details: artificial membrane
[2] = Ionophoric activity across egg yolk L-alpha-phosphatidylcholine-based liposomal membrane vesicles (unknown origin) assessed as release of chloride ion at 5 mol% by electrode technique in presence of 500 mM LiCl; type: ADME; details: artificial membrane
[3] = Ionophoric activity across egg yolk L-alpha-phosphatidylcholine-based liposomal membrane vesicles (unknown origin) assessed as release of chloride ion at 5 mol% by electrode technique in presence of 500 mM NaCl; type: ADME; details: artificial membrane
[4] = Ionophoric activity across egg yolk L-alpha-phosphatidylcholine-based liposomal membrane vesicles (unknown origin) assessed as induction of pH discharge at internal pH 7 and external aqueous phase pH 8 at 3 mol% by pyranine dye-based method in presence of NaNO3; details: artificial membrane
[5] = Ionophoric activity across egg yolk L-alpha-phosphatidylcholine-based liposomal membrane vesicles (unknown origin) assessed as induction of pH discharge at internal pH 7 and external aqueous phase pH 8 at 3 mol% by pyranine dye-based method in presence of NaI; details: artificial membrane
[6] = Ionophoric activity across egg yolk L-alpha-phosphatidylcholine-based liposomal membrane vesicles (unknown origin) assessed as release of chloride ion after 300 seconds by electrode technique in presence of sodium sulfate in external solution; type: ADME; details: artificial membrane, 5 min
[7] = Ionophoric activity across egg yolk L-alpha-phosphatidylcholine-based liposomal membrane vesicles (unknown origin) assessed as induction of pH discharge at internal pH 7 and external aqueous phase pH 8 at 3 mol% by pyranine dye-based method in presence of NaBr; details: artificial membrane
[8] = Ionophoric activity across egg yolk L-alpha-phosphatidylcholine-based liposomal membrane vesicles (unknown origin) assessed as release of chloride ion at 5 mol% by electrode technique in presence of 500 mM RbCl; type: ADME; details: artificial membrane
[9] = Ionophoric activity across egg yolk L-alpha-phosphatidylcholine-based liposomal membrane vesicles (unknown origin) assessed as release of chloride ion at 5 mol% by electrode technique in presence of 500 mM CsCl; type: ADME; details: artificial membrane
[10] = Ionophoric activity across egg yolk L-alpha-phosphatidylcholine-based liposomal membrane vesicles (unknown origin) assessed as release of chloride ion after 300 seconds by electrode technique in presence of sodium nitrate in external solution; type: ADME; details: artificial membrane, 5 min
[11] = Ionophoric activity across egg yolk L-alpha-phosphatidylcholine-based liposomal membrane vesicles (unknown origin) assessed as release of chloride ion at 5 mol% by electrode technique in presence of 500 mM KCl; type: ADME; details: artificial membrane

Activity [1]: Active | Activity [2]: Active | Activity [3]: Active | Activity [4]: Active | Activity [5]: Active | Activity [6]: Active | Activity [7]: Active | Activity [8]: Active | Activity [9]: Active | Activity [10]: Dose-dependent effect | Activity [11]: Active
Structure (SMILES): C[C@H](CCC(=O)NC(CCCNC(=N)N)C(=O)NCc1ccc(CNC(=O)C(CCCNC(=N)N)NC(=O)CC[C@@H](C)[C@@H]2CC[C@@H]3[C@@H]4[C@@H](C[C@@H](O)[C@]32C)[C@]2(C)CC[C@H](O)C[C@@H]2C[C@@H]4O)cc1)[C@H]1CC[C@H]2[C@@H]3[C@H](O)C[C@@H]4C[C@H](O)CC[C@]4(C)[C@H]3C[C@H](O)[C@]12C (stereo partly specified)
